Test results from PubChem BioAssay AID1918936 (Molecular Pharmacology Branch, DTP, NCI, 2023).

Test system: 349418-098-R-PDC complex spheroid viability
Test: Anticancer human tumor 349418-098-R-PDC patient-derived lung adenocarcinoma cell line growth inhibition
Conditions: for IC50: curve of first compound; for viability, T/C: stronger effect = lower value; active = viability on the fitted dose curve at most 10% of control; inactive = the rest
Excerpt: Multicellular complex tumor spheroid response to LSD1 Inhibitor Iadademstat in combination with a variety of drugs and investigational agents in selected tumor cell lines
The current study was undertaken to assess response to LSD1 inhibitors in combination with standard-of-care drugs and investigational agents in solid tumor complex spheroid models as well as in the K-562 leukemia. Complex spheroids include a stromal component modeled by human endothelial cells (HUVEC) and fibroblasts modeled by human mesenchymal stem cells (MSCs). The concentration ranges selected for each drug and investigational agent were based upon clinically achievable concentrations if the clinical Cmax of the agent was known.
Compounds. The drugs and investigational agents used in this study are listed on Table 1. All of the agents used, including staurosporine (NSC755774) and gemcitabine (NSC613327), were obtained from the Developmental Therapeutics Program, NCI. FDA-approved anticancer drugs are available from the NCI at http://dtp.nci.nih.gov/branches/dscb/oncology_drugset_explanation.html. Drugs and investigational agents were >95% pure by proton nuclear magnetic resonance (NMR) and liquid chromatography/mass spectrometry (LC/MS). Stock solutions were prepared at 400x in DMSO, stored at -70 degrees C, and diluted in fresh medium prior to their use. The final concentration of DMSO in cell culture wells never exceeded 0.25% (v/v). The FDA-approved anticancer drug set is available from the Developmental Therapeutics Program at https://dtp.cancer.gov/organization/dscb/obtaining/available_plates.htm. All drugs and investigational agents were tested over a range starting from a high concentration at or near the clinical Cmax and decreasing in half-log increments. If the clinical Cmax for an agent had not been determined, the highest concentration tested was 10 microM.
Cell Lines. The patient-derived cancer cell (PDC) lines: 292921-168-R-J2-PDC, K24384-001-R-PDC, and 521955-158-R2-J5-PDC pancreatic carcinomas, 556581-035-R-J1 ovarian carcinoma, 324938-238-R-J1-PDC, 855422-203-R-J1-PDC and 883617-216-R-J1-PDC urothelial bladder carcinomas, 743489-274-T-PDC renal cell carcinoma, 138582-R-J1 Merkel cell tumor, K60290-347-R-J1 and K57222-313-R-J1-PDC glioblastomas, 653999-131-R-J2-PDC, LG0703-F948-PDC, and 349418-098-R-PDC non-small cell lung carcinomas, 885512-296-R-J2-PDC, 171881-019-R-J1-PDC breast carcinomas and 186277-243-T-J2-PDC and 233499-124-R-J2-PDC colon carcinomas were obtained from the NCI Patient-Derived Models Repository (PDMR, https://pdmr.cancer.gov). The established cell lines NCI/ADR-RES (RRID:CVCL_14520 and OVCAR-5 (RRID:CVCL_1628) ovarian carcinomas, 786-O (RRID:CVCL_1051) and A498 (RRID:CVCL_A498) renal cell carcinoma, NCI-H211 (ATCC, cat. CRL-5824; RRID:CVCL_1529), NCI-H196 (ATCC, cat. CRL-5823, RRID:CVCL_1509), SW 1271 (ATCC, cat. CRL-2177, RRID:CVCL_1716) and NCI-H1876 (ATCC, cat. CRL-5902, RRID:CVCL_1503) small cell lung carcinomas, MDA-MB-231 (RRID:CVCL_0062) and MDA-MB-468 (RRID:CVCL_0419)breast carcinomas (10-12). Pooled donor human umbilical vein endothelial cells (HUVEC, Lonza, cat. CC-2519) and human mesenchymal stem cells (hMSC, Lonza, cat. PT-2501) were purchased from Lonza (Walkersville, MD).
Cell Culture. All cells were maintained in an incubator at 37 degrees C and 5% CO2 with 95% humidity. The PDC lines were cultured according to standard operating procedures established by the NCI PDMR (https://pdmr.cancer.gov). Briefly all PDCs were thawed and cultured in Matrigel-coated flasks prepared with a working solution of 1X Ham's F-12 nutrient mix, without supplementation (Invitrogen, Waltham, MA, cat. 11765054), 100 U/mL penicillin-streptomycin (Invitrogen, cat. 15140122), and 2.5% Matrigel (Corning Inc., Corning, NY, cat. 354248) for the first three passages. […]
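Note: spheroids exposed to agents for seven days before readout.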

CC1(C)CCC(CN2CCN(c3ccc(C(=O)NS(=O)(=O)c4ccc(NCC5CCOCC5)c([N+](=O)[O-])c4)c(Oc4cnc5[nH]ccc5c4)c3)CC2)=C(c2ccc(Cl)cc2)C1 + NC1CCC(NC2CC2c2ccccc2)CC1
4.54 µM: IC50 (second compound 0.316 µM)
4.55 µM: IC50 (second compound 3.16 µM)
4.25 µM: IC50 (second compound 0.1 µM)
4.24 µM: IC50 (second compound 10 µM)
inactive: viability, T/C (second compound 0.1 µM, first compound 0.0316 µM) 110% | viability, T/C (second compound 0.1 µM, first compound 0.1 µM) 110% | viability, T/C (second compound 0.1 µM, first compound 0.316 µM) 99.3% | viability, T/C (second compound 0.1 µM, first compound 1 µM) 96.3% | viability, T/C (second compound 0.1 µM, first compound 3.16 µM) 62.5% | viability, T/C (second compound 0.1 µM, first compound 10 µM) 11.8% | viability, T/C (second compound 0.316 µM, first compound 0.0316 µM) 115% | viability, T/C (second compound 0.316 µM, first compound 0.1 µM) 105% | viability, T/C (second compound 0.316 µM, first compound 0.316 µM) 103% | viability, T/C (second compound 0.316 µM, first compound 1 µM) 103% | viability, T/C (second compound 0.316 µM, first compound 3.16 µM) 67.9% | viability, T/C (second compound 0.316 µM, first compound 10 µM) 11.7% | viability, T/C (second compound 1 µM, first compound 0.0316 µM) 108% | viability, T/C (second compound 1 µM, first compound 0.1 µM) 111% | viability, T/C (second compound 1 µM, first compound 0.316 µM) 105% | viability, T/C (second compound 1 µM, first compound 1 µM) 96.1% | viability, T/C (second compound 1 µM, first compound 3.16 µM) 64.4% | viability, T/C (second compound 1 µM, first compound 10 µM) 10.4% | viability, T/C (second compound 3.16 µM, first compound 0.0316 µM) 103% | viability, T/C (second compound 3.16 µM, first compound 0.1 µM) 101% | viability, T/C (second compound 3.16 µM, first compound 0.316 µM) 104% | viability, T/C (second compound 3.16 µM, first compound 1 µM) 94.1% | viability, T/C (second compound 3.16 µM, first compound 3.16 µM) 67.7% | viability, T/C (second compound 3.16 µM, first compound 10 µM) 12% | viability, T/C (second compound 10 µM, first compound 0.0316 µM) 62.9% | viability, T/C (second compound 10 µM, first compound 0.1 µM) 81.2% | viability, T/C (second compound 10 µM, first compound 0.316 µM) 91% | viability, T/C (second compound 10 µM, first compound 1 µM) 87.4% | viability, T/C (second compound 10 µM, first compound 3.16 µM) 63% | viability, T/C (second compound 10 µM, first compound 10 µM) 11.9%
4.3 µM: IC50 (second compound 1 µM)

Nc1ccn(C2OC(CO)C(O)C2(F)F)c(=O)n1 (stereo not given) + NC1CC1c1ccc(-c2cccc(O)c2)cc1
active: viability, T/C (second compound 0.1 µM, first compound 0.003 µM) 4.68% | viability, T/C (second compound 0.1 µM, first compound 0.00949 µM) 4.34% | viability, T/C (second compound 0.1 µM, first compound 0.03 µM) 4.35% | viability, T/C (second compound 0.1 µM, first compound 0.0949 µM) 3.93% | viability, T/C (second compound 0.1 µM, first compound 0.3 µM) 4.06% | viability, T/C (second compound 0.316 µM, first compound 0.003 µM) 3.77% | viability, T/C (second compound 0.316 µM, first compound 0.00949 µM) 3.96% | viability, T/C (second compound 0.316 µM, first compound 0.03 µM) 3.75% | viability, T/C (second compound 0.316 µM, first compound 0.0949 µM) 3.4% | viability, T/C (second compound 0.316 µM, first compound 0.3 µM) 3.31% | viability, T/C (second compound 1 µM, first compound 0.003 µM) 4.07% | viability, T/C (second compound 1 µM, first compound 0.00949 µM) 4.17% | viability, T/C (second compound 1 µM, first compound 0.03 µM) 3.99% | viability, T/C (second compound 1 µM, first compound 0.0949 µM) 3.7% | viability, T/C (second compound 1 µM, first compound 0.3 µM) 3.81% | viability, T/C (second compound 3.16 µM, first compound 0.003 µM) 4.9% | viability, T/C (second compound 3.16 µM, first compound 0.00949 µM) 4.67% | viability, T/C (second compound 3.16 µM, first compound 0.03 µM) 4.52% | viability, T/C (second compound 3.16 µM, first compound 0.0949 µM) 3.81% | viability, T/C (second compound 3.16 µM, first compound 0.3 µM) 3.95% | viability, T/C (second compound 10 µM, first compound 0.003 µM) 4.98% | viability, T/C (second compound 10 µM, first compound 0.00949 µM) 5.12% | viability, T/C (second compound 10 µM, first compound 0.03 µM) 4.52% | viability, T/C (second compound 10 µM, first compound 0.0949 µM) 4.65% | viability, T/C (second compound 10 µM, first compound 0.3 µM) 4.28%
< 0.000949 µM: IC50 (second compound 0.1 µM) | IC50 (second compound 0.316 µM) | IC50 (second compound 1 µM) | IC50 (second compound 3.16 µM) | IC50 (second compound 10 µM)
inactive: viability, T/C (second compound 0.1 µM, first compound 0.000949 µM) 13.3% | viability, T/C (second compound 0.316 µM, first compound 0.000949 µM) 14.1% | viability, T/C (second compound 1 µM, first compound 0.000949 µM) 15.9% | viability, T/C (second compound 3.16 µM, first compound 0.000949 µM) 18.6% | viability, T/C (second compound 10 µM, first compound 0.000949 µM) 17.2%
